We go through 2 molecules from publication PMC12298270, “Development and Validation of a New LC-MS/MS Method for Simultaneous Quantification of Ivacaftor, Tezacaftor and Elexacaftor Plasma Levels in Pediatric Cystic Fibrosis Patients” (Pharmaceuticals, 2025).

A short description of series [1]: Stability of prepared QC samples after one cycle of freezing (−80 °C) and thawing. Conditions: low-, medium- and high-QC samples, thawed after 12 days. The class given is physicochemical. Here is the method:
We have also evaluated the stability of prepared low-, medium- and high-QC samples following one cycle of freezing (−80 °C) and thawing (after 12 days). The calculated stability for ivacaftor, tezacaftor and elexacaftor was 100–107% after 12 days. Patient samples (n = 3 T0 and T4) were randomly selected and re-analyzed after being stored at −80 °C over a period of five months. Compared to the first measurement (time 0), the stability ranged from 85.48 ± 19.83% (mean ± SD) for IVA T4 to 90.55 ± 2.42% for ELX T0 (Supplementary Table S2). Autosampler stability was tested by analyzing IVA, TEZ and ELX concentrations in QCs maintained at room temperature at time 0 (corresponding to preparation of QC samples and to the first measurement) and after 24 h (short-term stability) or 9 days (long-term stability). We also evaluated, on prepared low-, medium- and high-QC samples, the stability following one cycle of freezing (−80 °C) and thawing (after 12 days). To further assess long-term stability, n = 3 T0 and T4 of authentic samples, stored at −80 °C over a period of five months, were randomly chosen and re-analyzed. The percentage difference between the concentration measured at each sampling point and the initial concentration was calculated. Based on ICH guideline M10, a percentage difference below the 15% was considered acceptable.

On the set-up of series [2]: method as in PMID 40245791. As to conditions: H-QC, after sample preparation; cited from earlier work.
The nature of series [3]: Plasma levels of IVA, TEZ and ELX by LC-MS/MS in pediatric cystic fibrosis patients at steady state on Kaftrio. As to conditions: for Cmax at 4 h / AUC(0-t): both sexes, human, plasma, oral; for Cmax at 4 h / Plasma concentration T0 (Ctrough), 25th Percentile / Plasma concentration T0 (Ctrough), 75th Percentile / Plasma concentration T0 (Ctrough), Median: steady state; for Cmax at 4 h: 4 h after morning Kaftrio dose; for Plasma concentration T0 (Ctrough), 25th Percentile / Plasma concentration T0 (Ctrough), 75th Percentile / Plasma concentration T0 (Ctrough), Median: before morning Kaftrio dose. The series is classed as in vivo, human. The method, then:
The clinical performance of our validated method was tested on n = 25 samples from pediatric patients affected by cystic fibrosis. Table 5 reports plasma concentrations of IVA, TEZ and ELX measured before (T0) and 4 h after (T4) the morning dose assumption of Kaftrio® (corresponding to IVA Tmax). For IVA, the plasma concentration at 12 h (T12) was obtained by using C4h*e^−β(t12−t4), and the AUC0–12h was calculated to assess the systemic exposure within the interval between two doses (Table 5). Thereafter, AUC0–12h values were multiplied by 2 in order to perform a regression analysis of T0 concentrations versus AUC0–24h.
The clinical applicability of our validated method was tested on n = 25 plasma samples from pediatric patients with a median (range) age of 9.5 (7–17) years and affected by cystic fibrosis (CF). These patients (n = 14 males and n = 11 females) were followed-up during the routine clinical practice at Pneumology and Cystic Fibrosis Unit of Bambino Gesù Children’s Hospital, and were concomitantly receiving therapies with pancreatic enzymes, bronchodilators, antibiotics (including carbapenems, macrolides, beta-lactams, lipopeptides, fluoroquinolones) and proton pump inhibitors.
In order to evaluate systemic exposure to each CFTR modulator, drug levels were measured at steady-state by collecting EDTA–whole blood samples before (T0, corresponding to the minimum plasma concentration, Ctrough,) and 4 h after the morning dose intake (T4, corresponding to the maximum concentration, Cmax). After centrifugation at 3500 rcf for 5 min, plasma was recovered from whole blood samples. Plasma samples were collected and stored at −80 °C until analysis.
According to the Kaftrio® summary of product characteristics (SmPC), patients received a morning dose consisting of two ivacaftor 75 mg/tezacaftor, 50 mg/elexacaftor, 100 mg tablets, whereas one ivacaftor 150 mg tablet was taken in the evening (every 12 h).
Elexacaftor/tezacaftor/ivacaftor plasma levels were determined using high-performance liquid chromatography (HPLC) coupled to mass spectrometry (MS/MS). EDTA–whole blood samples were collected before (T0) and 4 h after (T4) morning drug intake. Analysis of Kaftrio® plasma levels was performed at Division of Metabolic Diseases and Drug Biology of Bambino Gesù Children’s Hospital, IRCCS, in Rome (Italy). The liquid chromatography (LC) system consisted of an UHPLC Agilent 1290 Infinity II (Agilent Technologies, Deutschland GmbH, Waldbronn, Germany). Gradient chromatographic separation was performed in reverse phase mode with a Luna Omega 1.60 µm Polar C18 (100 × 2.1 mm) column (Phenomenex) maintained at 40 °C, with mobile phase A (0.1% formic acid (FA) in water) and mobile phase B (0.1% formic acid and 25% of 2-propanol in ACN). The flow rate of mobile phases was 0.4 mL/min. The duration of each chromatographic run was 10.50 min.
The volume injected was 1 μL. Detection of IVA, IVA-d9, TEZ, TEZ-d4, ELX and ELX-d3 was carried out using a 6470 Mass Spectrometry system (Agilent Technologies, Deutschland GmbH, Waldbronn, Germany) equipped with an ESI-JET-STREAM source operating in the positive ion (ESI+) mode. Mass spectrometric conditions were as follows: Gas Temperature 350 °C, Gas Flow 9 L/min, Sheath Gas Temperature 300 °C, Sheath Gas Flow 9 L/min, Capillary 4000 V, Nebulizer 35 psi.
A 10 µL measure of IS working solution with IVA-d9, TEZ-d4 and ELX-d3 was added to 50 µL of plasma or CAL or QC or blank sample in darkened tubes. After vortexing for 5 s, 300 µL of pure ACN were added to each sample. Samples were mixed for 60 s and centrifuged at 13,000 rpm for 9 min at room temperature. Thereafter, 200 µL of supernatant were collected in amber glass vials and injected into the UHPLC-MS/MS system.
Demographic data and PK parameters were analyzed using descriptive statistics. The median with interquartile range (IQR) was used to describe Ctrough levels. […]

Details of series [4]: method as in PMID 38494378. Conditions: cited from earlier work.
Details of series [5]: method as in ref 18 = [18]; 18. U.S. Food and Drug Administration Center for Drug Evaluation and Research: Nda/Bla, Multi-Disciplinary Review and Evaluation, Lumacaftor/Ivacaftor Available online: https://www.accessdata.fda.gov/. As to conditions: Trikafta drug registration documents; cited from earlier work.
Where [6] appears, read: n = 25 pediatric CF patients, read-out: Plasma concentration T4 (Cmax), 25th Percentile.
Where [7] appears, read: n = 25 pediatric CF patients, read-out: Plasma concentration T4 (Cmax), 75th Percentile.
[8] abbreviates: n = 25 pediatric CF patients, read-out: Plasma concentration T4 (Cmax), Median.

Read-outs that look alike come from different tables or passages of the source.

Turning to `CC(C)(C)c1cc(C(C)(C)C)c(NC(=O)c2c[nH]c3ccccc3c2=O)cc1O` [IVA, Ivacaftor], the “Stability after one cycle of freezing and thawing” value in series [1] is on record as 100–107%. In series [2], the “Remaining % after ten days in the autosampler” value is recorded as 88%. Moreover, the Cmax at 4 h is 1070 ng/mL in series [3] (setting [6]), 2430 ng/mL in series [3] (setting [7]) and 1490 ng/mL in series [3] (setting [8]). The AUC(0-t) in series [3] (n = 25 pediatric CF patients, C12h estimated as C4h*e^−β(t12−t4), read-out: Measured AUC0–12h, 25th Percentile) is 7930 ng·h/mL; in series [3] (n = 25 pediatric CF patients, C12h estimated as C4h*e^−β(t12−t4), read-out: Measured AUC0–12h, 75th Percentile), 19400 ng·h/mL; in series [3] (n = 25 pediatric CF patients, C12h estimated as C4h*e^−β(t12−t4), read-out: Measured AUC0–12h, Median), 11400 ng·h/mL. The “Back-calculated Ctrough (T0), median (IQR)” value in series [3] (from regression equation of AUC0–24h versus Ctrough (y = 27.6 * x + 4.30)) was 0.80 (0.42–1.32) µg/mL. Besides, the “Plasma concentration T0 (Ctrough), 25th Percentile” value in series [3] (n = 25 pediatric CF patients) is 370 ng/mL. For the same molecule, the “Plasma concentration T0 (Ctrough), 75th Percentile” value in series [3] (n = 25 pediatric CF patients) stood at 1340 ng/mL. In addition, in series [3] (n = 25 pediatric CF patients), the “Plasma concentration T0 (Ctrough), Median” value came to 790 ng/mL. For the same molecule, the “Measured AUC0–12h, 25th Percentile” value in series [3] (n = 25 pediatric CF patients, C12h estimated as C4h*e^−β(t12−t4)) is 5330 ng·h/mL. The “Back-calculated Ctrough, mean ± 1.96 SD” value in series [4] was 700 ng/mL. For the same molecule, the “Ctrough (Cmin), mean ± SD” value in series [5] is 630 ± 260 ng/mL.

`CC(C)(CO)c1cc2cc(NC(=O)C3(c4ccc5c(c4)OC(F)(F)O5)CC3)c(F)cc2n1C[C@@H](O)CO` [TEZ, Tezacaftor]: in series [1], the “Stability after one cycle of freezing and thawing” value was 100–107%. Moreover, the “Remaining % after ten days in the autosampler” value in series [2] is recorded as 99.8%. Further, in series [3] (setting [6]), the Cmax at 4 h came out at 3750 ng/mL. Further, in series [3] (setting [7]), the Cmax at 4 h is 6320 ng/mL. The Cmax at 4 h in series [3] (setting [8]) amounted to 4520 ng/mL. In addition, in series [3] (n = 25 pediatric CF patients), the “Plasma concentration T0 (Ctrough), 25th Percentile” value was 720 ng/mL; the “Plasma concentration T0 (Ctrough), 75th Percentile” value worked out at 1870 ng/mL; the “Plasma concentration T0 (Ctrough), Median” value was found to be 1370 ng/mL. Also, the “Minimum concentration (Cmin), median (range)” value in series [4] was 1300 ng/mL. Further, in series [5], the “Ctrough (Cmin), mean ± SD” value is 2100 ± 820 ng/mL.
